One series addresses PD-1/PD-L1 (Homo sapiens (Human), UniProt Q9NZQ7). The series is described as follows: PD-1/PD-L1 Binding Assay (Alphascreen). Particulars: numeric values. The method, boiled down:
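PD-1/PD-L1 binding detected by anti-6×His acceptor and streptavidin donor beads after 120 min in the dark at 25 °C. Beforehand, the two proteins were incubated 15 min at 25 °C with inhibitor at 0.015–300 nM (1% DMSO). IC50 comes from a log concentration–response curve.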

A short description of series [1]: Pharmacokinetic Assay, single oral dose 100 mg/kg (Table 11). It is filed as in vivo. Particulars: mouse, C57 female mice, oral (intragastric), plasma.
A short description of series [2]: Pharmacokinetic Assay, single oral dose 5 mg/kg (Table 12). Particulars: mouse, plasma concentration, C57 female mice, single oral dose 5 mg/kg. It is filed as in vivo. The method, boiled down:
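Adult female C57 mice (n=3) got one intragastric dose of 5 mg/kg in 15% DMSO, 10% Kolliphor HS 15, 75% saline. Retro-orbital blood was taken at 30 min, 2 h and 4 h into K2-EDTA. Plasma levels were measured by LC-MS/MS.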

The subject of series [3] is PD-1/PD-L1 interaction (Jurkat T cells expressing hPD-1 and PD-L1 aAPC/CHO-K1 cells expressing hPD-L1). The series is described as follows: NFAT Assay (PD-1/PD-L1 Blockade Bioassay, luciferase reporter). It is filed as cell-based. Particulars: Homo sapiens; PD-1 effector Jurkat cells + PD-L1 aAPC/CHO-K1 cells, Bio-Glo luciferase. Here is the method: PD-1/PD-L1 Blockade Bioassay contains two cells: PD-1 Effector Cells, which are the Jurkat T cells expressing hPD-1 and luciferase reporter genes; PD-L1 aAPC/CHO-K1 Cells, which are the CHO-K1 cells expressing hPD-L1 and activate TCR's cell surface proteins. The antibody or small molecule compound is incubated with these two cells for a period of time, and the amount of the product is detected using Bio-Glo Luciferase reagent and chemiluminescence method to reflect the influence of antibody or small molecule compound on PD-1/PD-L1 interaction.
Cell medium: 36 mL Ham's F-12; 4 mL FBS
1) Resuscitate PD-L1 aAPC/CHO-K1 Cells on the first day and the cells were suspended and counted with cell recovery medium. The cells were diluted to 2.65*10^5/ml with cell medium. Seed cells at density of 6000 cells/well of 384-wells plates, incubator for 16-24 h;
2) Dilute the compound to 5 mM with DMSO. The 5 mM solution was used as the first concentration, and a 3-fold gradient dilution was performed, with a total of 9 concentration gradients, and the 10th concentration was used as the DMSO control;
3) Positive control antibody Atezolizumab was diluted to 4 μg/ml with assay buffer. 4 μg/ml was used as the first concentration, and a 2.5-fold gradient dilution was performed, with a total of 9 concentration gradients, and the 10th concentration was used as the assay buffer control;
4) Aspirate the medium from the 384-well plate. Add 10 μL/well of compound to the 384-well plate and incubate for 2 hours;
5) Resuscitate PD-1 effector cells and the cells were suspended and counted with cell recovery medium. The cells were diluted to […] with cell medium. Seed cells at density of 8000 cells/well to 384-wells plates of step 4, incubator for 17 h;
6) Add 20 μL/well of Bio-Glo luciferase reagent to the 384 reaction plate of step 5, and incubate at 25° C. for 5-30 minutes.
7) Read the RLU (relative luminescence unit) value using the Envision multi-plate reader. The experimental data were plotted using compound concentration as X value and RLU as Y value.

PD-1/PD-L1, sequence (Q9NZQ7 19-238): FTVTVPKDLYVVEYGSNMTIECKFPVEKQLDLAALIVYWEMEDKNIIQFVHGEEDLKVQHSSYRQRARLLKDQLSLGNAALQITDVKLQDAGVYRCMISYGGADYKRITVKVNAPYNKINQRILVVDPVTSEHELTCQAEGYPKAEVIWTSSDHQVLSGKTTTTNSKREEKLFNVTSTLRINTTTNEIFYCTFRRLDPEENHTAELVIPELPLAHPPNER

The term IC50 denotes the concentration that inhibits the measured activity by half. Low readings indicate greater potency, high ones weaker potency. The AUC is the area under the concentration-time curve, a measure of exposure. Read a low AUC as less exposure. As usually defined, the Cmax is the maximum level reached in the sampled fluid or tissue. The term Tmax denotes the time from dosing to the highest level. As a reminder, the half-life is the time needed for the level to fall by half in the phase considered. As usually defined, the EC50 is the midpoint of the concentration-response curve. The compound `Cc1c(-c2nc3cc(CN4CCC[C@H]4C(=O)O)c(OC(F)F)cc3o2)cccc1-c1cccc(-c2nc3cc(CN4CC(C)(C)C4)cc(C#N)c3o2)c1C` [Example 103, ((2-(3′-(7-cyano-5-((3,3-dimethylazetidin-1-yl)methyl)benzo[d]oxazol-2-yl)-2,2′-dimethyl-[1,1′-biphenyl]-3-yl)-6-(difluoromethoxy)benzo[d]oxazol-5-yl)methyl)-L-proline] gave a half-maximal inhibitory concentration (IC50) on PD-1/PD-L1 of 0.13 nM. Besides, in series [1], the exposure (AUC) is 96400 ng·h/mL, the concentration peaked (Cmax) at 5590 ng/mL, the Tmax stood at 4 h and the half-life was 23.4 h. In series [2], this compound displayed a concentration at 0.5 h of 48.9 ng/mL, a concentration at 2 h of 185 ng/mL and a concentration at 4 h of 135 ng/mL. In series [3], the EC50 was 254 nM.
Take `Cc1c(-c2nc3cc(CN4CCC[C@H]4C(=O)O)ccc3o2)cccc1-c1cccc(-c2nc3cc(CN4CC(C)(C)C4)cc(C#N)c3o2)c1C` [Example 318, ((2-(3′-(7-cyano-5-((3,3-dimethylazetidin-1-yl)methyl)benzo[d]oxazol-2-yl)-2,2′-dimethyl-[1,1′-biphenyl]-3-yl)benzo[d]oxazol-5-yl)methyl)-L-proline]: the EC50 in series [3] came out at 3220 nM.
In series [2], `Cc1c(-c2nc3cc(CN4CCC[C@H]4C(=O)O)ccc3o2)cccc1-c1cccc(-c2nc3cc(CN4CCCC4)c(OC(F)F)cc3o2)c1C` [Example 317, ((2-(3′-(6-(difluoromethoxy)-5-(pyrrolidin-1-ylmethyl)benzo[d]oxazol-2-yl)-2,2′-dimethyl-[1,1′-biphenyl]-3-yl)benzo[d]oxazol-5-yl)methyl)-L-proline] displayed a concentration at 0.5 h of 20.6 ng/mL, a concentration at 2 h of 88.5 ng/mL and a concentration at 4 h of 44.3 ng/mL. Also, the EC50 in series [3] came out at 4700 nM.
At PD-1/PD-L1, `Cc1c(-c2nc3cc(CN4CCCC4)c(OC(F)F)cc3o2)cccc1-c1cccc(-c2nc3cc(CN4CCC[C@H]4C(=O)O)c(OC(F)F)cc3o2)c1C` [Example 5, ((6-(difluoromethoxy)-2-(3′-(6-(difluoromethoxy)-5-(pyrrolidin-1-ylmethyl)benzo[d]oxazol-2-yl)-2,2′-dimethyl-[1,1′-biphenyl]-3-yl)benzo[d]oxazol-5-yl)methyl)-L-proline] yielded an IC50 of 0.4 nM. Further, in series [1], the area under the curve (AUC) was 25700 ng·h/mL, the maximum concentration (Cmax) came out at 2600 ng/mL, the Tmax turned out to be 4 h and the half-life is 5.07 h. Moreover, in series [2], the concentration at 0.5 h is 43.9 ng/mL, the concentration at 2 h was found to be 55.7 ng/mL and the concentration at 4 h came out at 61.2 ng/mL. In addition, the EC50 in series [3] was determined as 317 nM.

Source of the values: patent publication US12187713B2, “Immunomodulators, compositions and methods thereof” (Betta Pharmaceuticals Co., Ltd, priority 2019, dated 2025).
